Experimental data taken from paper PMC6197257 (Scientific Reports, 2018).

Tests used:
rat 11β-HSD2 = biological target: T1, rat 11β-HSD2 (Rattus norvegicus, UniProt P50233); experiment: in vitro 11β-HSD2 activity using rat kidney microsomes; format: biochemical
T1 construct: kidney microsome fractions were obtained from male Wistar rats (7-week-old); from tissue; host or cells: rat kidney microsome fraction (male Wistar rats)
T1 sequence (P50233 1-400): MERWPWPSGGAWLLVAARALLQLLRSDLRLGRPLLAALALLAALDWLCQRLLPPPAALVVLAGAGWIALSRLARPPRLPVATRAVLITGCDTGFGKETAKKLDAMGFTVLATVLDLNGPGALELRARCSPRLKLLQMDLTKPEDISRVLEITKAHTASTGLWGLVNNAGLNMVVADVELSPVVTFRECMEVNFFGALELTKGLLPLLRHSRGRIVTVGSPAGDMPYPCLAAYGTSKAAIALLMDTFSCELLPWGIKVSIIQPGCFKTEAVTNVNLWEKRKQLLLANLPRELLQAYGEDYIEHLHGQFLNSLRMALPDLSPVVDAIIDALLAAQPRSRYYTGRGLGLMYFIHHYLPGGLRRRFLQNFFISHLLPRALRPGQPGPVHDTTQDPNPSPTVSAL
Procedure: Assays were conducted as described by Diederich et al.[23] with slight modifications as described in our previous study. Briefly, kidney microsome fractions were obtained from male Wistar rats (7-week-old). The microsome fraction (1.0 mg protein) was then incubated at 37 °C for 30 min in a reaction mixture containing 50 nM [1,2,6,7-^3H] cortisol, 1 mM NAD^+, and samples in […] 0.1 M phosphate buffer (pH 6.0). The reaction was terminated by adding 250 µl EtOH containing 1.25 mg cortisol and 1.25 mg cortisone. A 10 µl aliquot of the solution was spotted onto a silica gel 60 F254 plate and was developed with chloroform:MeOH (9:1). Spots corresponding to cortisone (Rf value, 0.43) were detected under UV light, scraped into a scintillation vial containing Clear-sol®, and the radioactivity was measured using a liquid scintillation counter (Hitachi Aloka Medical, Tokyo, Japan). The IC50 was calculated from the least square regression line made from 3 points that crossed 50% of the control logarithmic concentration values.

rat kidney slices = experiment: uptake by rat kidney slices; format: in vitro ADME; details: pooled plasma of female EHBRs, pH 5.5, 2 h
Procedure: Female SD rats (9-week-old) were treated with urethane (1 g/kg, i.p.), and their kidneys were collected. After removal of the capsule, the kidneys were sliced at approximately 0.5-mm thickness in the frontal section of the organ, using a tissue slicer (Natsume Seisakusyo, Tokyo, Japan) and then cut at the renal hilus into two halves. The slices were pre-incubated at either 4 or 37 °C for 15 min in 24-well plates with 0.3 ml of the incubation medium (137 mM NaCl, 5.4 mM KCl, 0.95 mM CaCl2, 0.81 mM MgSO4, 0.44 mM KH2PO4, 0.25 mM Na2HPO4, 5.5 mM glucose, 10 mM MES, adjusted to pH 5.5). Five ml of pooled female EHBR plasma samples was lyophilized, and dissolved in 5 ml of the incubation medium. […] After washing with PBS three times, the kidney slices were homogenated in PBS using sonication, and the concentrations of protein were measured as mentioned above. […]
LC-ESI(+)MS/MS analysis was conducted at the following conditions: column, Scherzo SM-C18 (3 μm, 3 mm i.d. ×100 mm, Imtakt, Kyoto, Japan); mobile phase, (A) 5 mM AcNH4, (B) 125 mM AcNH4/acetonitrole 1:4, at a flow rate of 0.3 ml/min, with the following gradient profile: A:B = 50:50–0:100 (0–3 min) and 0:100 (3–10 min); compound 1 (5.8 min), astragaloside IV (3.0 min), GA (8.7 min); the transitions monitored were the same as described in the previous section. […]

potency on 11β-HSD2, times lower than that of 3MGA and GA (rat 11β-HSD2; IC50 of compound 1 compared with 3MGA and GA): about 10 times
IC50 (rat 11β-HSD2; kidney microsomes of male Wistar rats, 37 °C, 30 min): 2 µM
uptake by kidney slices at 37 °C compared with 4 °C (rat kidney slices): significantly higher
Structure (SMILES): CC1(C(=O)OC2OC(C(=O)O)C(O)C(O)C2O)CC(O)C2(C)CCC3(C)C(=CC(=O)C4C5(C)CCC(OS(=O)(=O)O)C(C)(C)C5CCC43C)C2C1 (stereo not drawn) [Compound 1, 22α-hydroxy-18β-glycyrrhetyl-3-O-sulfate-30-glucuronide]
